Source: the supplement of paper PMC10307832

Key:
Assay in all cases: relative viability (nuclei count vs DMSO), 5 days (fraction); higher = more cells survive
[1] = compound: CC[C@H](Nc1ncnc2[nH]cnc12)c1nc2cccc(F)c2c(=O)n1-c1ccccc1 [Idelalisib] + C[C@]1(O)C[C@@H](c2nc(-c3ccc4ccc(-c5ccccc5)nc4c3)c3c(N)nccn32)C1 [Linsitinib] (partner 1 µM)
Procedure, shortened: (§1)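 Cells from lung cancer lines were seeded into 1536-well plates and, one day later, dosed by pin tool. Treatments were either a single drug or a fixed dose of an anchor drug with five library-drug doses (not always all listed) in √10 steps. After 5 days, nuclei were stained in a one-step fixation (final 0.05% Triton X-100, 1% formaldehyde, 1 ug/ml Hoechst) and counted on 4× images, and relative viability is the treated-to-vehicle nuclei ratio, as the median of duplicate plates.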

[2] = compound: Nc1nc2[nH]cc(CCc3ccc(C(=O)N[C@@H](CCC(=O)O)C(=O)O)cc3)c2c(=O)[nH]1 [Pemetrexed] + C[C@@H](Oc1cc(-c2cnn(C3CCNCC3)c2)cnc1N)c1c(Cl)ccc(F)c1Cl [Crizotinib] (partner 1 µM)
Procedure, shortened: as §1

[3] = compound: Nc1nc2[nH]cc(CCc3ccc(C(=O)N[C@@H](CCC(=O)O)C(=O)O)cc3)c2c(=O)[nH]1 [Pemetrexed] + CC(C)C[C@H](NC(=O)[C@H](Cc1ccccc1)NC(=O)c1cnccn1)B(O)O [Bortezomib] (partner 0.002 µM)
Procedure, shortened: as §1

[4] = compound: CC[C@H](Nc1ncnc2[nH]cnc12)c1nc2cccc(F)c2c(=O)n1-c1ccccc1 [Idelalisib] + CC(=O)c1c(C)c2cnc(Nc3ccc(N4CCNCC4)cn3)nc2n(C2CCCC2)c1=O [Palbociclib] (partner 0.5 µM)
Procedure, shortened: as §1

Cell Line: UMC-11
- relative viability ([1]; first compound 0.04 µM): 0.912
- relative viability ([1]; first compound 0.1265 µM): 1.02
- relative viability ([1]; first compound 0.4 µM): 0.966
- relative viability ([1]; first compound 1.265 µM): 1.01
- relative viability ([1]; first compound 4 µM): 1.06
- relative viability ([2]; first compound 0.002 µM): 0.603
- relative viability ([2]; first compound 0.006325 µM): 0.635
- relative viability ([2]; first compound 0.02 µM): 0.666
- relative viability ([2]; first compound 0.06325 µM): 0.715
- relative viability ([2]; first compound 0.2 µM): 0.566
- relative viability ([3]; first compound 0.002 µM): 0.573
- relative viability ([3]; first compound 0.006325 µM): 0.639
- relative viability ([3]; first compound 0.02 µM): 0.682
- relative viability ([3]; first compound 0.06325 µM): 0.991
- relative viability ([3]; first compound 0.2 µM): 0.698
- relative viability ([4]; first compound 0.04 µM): 0.335
- relative viability ([4]; first compound 0.1265 µM): 0.33
- relative viability ([4]; first compound 0.4 µM): 0.298
- relative viability ([4]; first compound 1.265 µM): 0.298
- relative viability ([4]; first compound 4 µM): 0.261
